Results from patent publication US9605013B2, “Derivatives of hemin with antibacterial and antiviral activity” (OBSCHESTVO S OGRANICHENNOI OTVETSTVENNOSTIYU …, priority 2011, dated 2017).

Tested on: Herpes Simplex Virus type 2 strain G (No. VR-734 ATCC)
Test: Antiviral activity, virus cytopathogenic action in Vero cells
Type: cell-based
Design: key: 0: CPA (cytopathogenic action) is not detected; 1: up to 25% virus-infected monolayer; from 25% to 50%; 3: from 50% to 75%; 4: from 75% to 100%
Conditions: 48 hours
Experimental: […] used in the study were used Herpes Simplex Virus type 1 (the Collection of Microorganisms at the Scientific Research Institute of Virology, strain EC), Herpes Simplex Virus type 2 strain G (No. VR-734 ATCC), and human cytomegalovirus strain AD169 (No. VR-538 ATCC). Herpes Simplex viruses type 1 and type 2 were cultured in Vero cells. The cells were incubated in MEM Eagle growth medium (MEM, BioloT, St-Petersburg, 1.3.3) supplemented with 10% fetal bovine serum (BioloT, St-Petersburg, 1.3.12) in Sanyo MCO-15AC gas-flow thermostat (37° C., 5% CO2) (Tokyo, Japan). A seed dose was 2×10^5 cells/ml in the starting inoculum or 2×10^4 cells/well. Herpes Simplex viruses were cultured under the same conditions in the MEM medium without serum (maintenance medium). Starting viral titers were 10^7 TCID50/ml.
For DMSO-soluble preparations, stock solutions were prepared in a concentration of 10 mM in DMSO. For water-soluble preparations, a stock solution prepared had the same concentration in the MEM medium (Minimal Essential Medium) for cell cultures. To control cytotoxicity (see below), the stock solution was diluted in the medium to a concentration of 100 μM and ten-fold serial dilutions of the preparations were made in the MEM medium (for DMSO-soluble compounds—in the MEM medium comprising 3% DMSO). The following concentrations of the preparations were used in the study of […]: if toxicity was not found, the concentrations of 100 μM preparations were 100, 10 and 1 μM; if toxicity was detected, the concentrations of 100 μM preparations were 10, 1, and 0.1 μM. Acyclovir (10 μg/ml) was used for Herpes Simplex viruses of both types as a reference preparation to control the viral model validity.
To study antiviral activity, plate wells with a cell monolayer were added with the preparations in an amount of 0.1 ml/well. To compensate a reduction in the concentration of the preparations, which takes place in the following addition of viruses, twofold concentrations of compounds (i.e. 200, 20 and 2 or 20, 2 and 0.2 μM for […] concentrations of 100 μM preparations, respectively) were used, incubated for an hour and then were infected with the examined 0.1 ml/well viruses in doses 1, 10 and 100 TCID50 (50% tissue infectious dose).
The virus-specific cytogenic action was manifested in an increase in the size of cells, their rounding, and detachment from a substrate. These morphological characteristics served as their marked difference from the cells subjected to a toxic action of high concentrations of the examined preparations. The latter acquired spindle-like shape, lost contacts with neighboring cells of the monolayer, and their boundaries became more distinct.
Intensity of the virus-specific changes in the cells were semi-quantified using a 4-score system: 0—CPA (cytopathogenic action) is not detected; 1—up to 25% virus-infected monolayer; 2—from 25% to 50%; 3—from 50% to 75%; and 4—from 75% to 100%. The antiviral activity of a compound was evaluated according to their ability to reduce the manifestation of cytopathogenic action in the plate wells compared to the control values. Differences with the control values by 1 score and more were considered to be significant.

[1] = HSV-2, virus dose 1, concentration 0.1 μM
[2] = HSV-2, virus dose 1, concentration 1 μM
[3] = HSV-2, virus dose 1, concentration 10 μM
[4] = HSV-2, virus dose 10, concentration 0.1 μM
[5] = HSV-2, virus dose 10, concentration 1 μM
[6] = HSV-2, virus dose 10, concentration 10 μM
[7] = HSV-2, virus dose 100, concentration 0.1 μM
[8] = HSV-2, virus dose 100, concentration 1 μM
[9] = HSV-2, virus dose 100, concentration 10 μM

Compound | manifestation of the virus CPA [1] | manifestation of the virus CPA [2] | manifestation of the virus CPA [3] | manifestation of the virus CPA [4] | manifestation of the virus CPA [5] | manifestation of the virus CPA [6] | manifestation of the virus CPA [7] | manifestation of the virus CPA [8] | manifestation of the virus CPA [9]
6,7-bis-(Amide N^α-Glycyl)-Protohemin (IX) [IV] | 1 (up to 25% virus-infected monolayer) | 0.5 scores | 0^1 | 2 (from 25% to 50%) | 2 (from 25% to 50%) | 0^1 | 3 (from 50% to 75%) | 3 (from 50% to 75%) | 0^1
6,7-bis-[(Diamide N^α-L-Arginyl)-L-glutamyl]-Protohemin (IX) | 1 (up to 25% virus-infected monolayer) | 0.5 scores | 0^1 | 2 (from 25% to 50%) | 2 (from 25% to 50%) | 1^1 (up to 25% virus-infected monolayer) | 3 (from 50% to 75%) | 3 (from 50% to 75%) | 3 (from 50% to 75%)
C=CC1=C(C)c2cc3[n-]c(cc4[n-]c(cc5nc(cc1n2)C(C)=C5C=C)c(C)c4CCC(=O)N[C@@H](CCCNC(=N)N)C(N)=O)c(CCC(=O)N[C@@H](CCCNC(=N)N)C(N)=O)c3C.[Cl-].[Fe+3] [II, 6,7-bis-(Amide N^α-Arginyl)-Protohemin (IX)] | 1 (up to 25% virus-infected monolayer) | 0.5 scores | 0^1 | 1.5 scores | 2 (from 25% to 50%) | 1^1 (up to 25% virus-infected monolayer) | 3 (from 50% to 75%) | 3 (from 50% to 75%) | 3 (from 50% to 75%)
C=CC1=C(C)c2cc3[n-]c(cc4[n-]c(cc5nc(cc1n2)C(C)=C5C=C)c(C)c4CCC(=O)N[C@@H](CO)C(N)=O)c(CCC(=O)N[C@@H](CO)C(N)=O)c3C.[Cl-].[Fe+3] [V, 6,7-bis-(Amide N^α-Seryl)-Protohemin (IX)] | 1 (up to 25% virus-infected monolayer) | 0.5 scores | 0^1 | 2 (from 25% to 50%) | 2 (from 25% to 50%) | 0^1 | 3 (from 50% to 75%) | 3 (from 50% to 75%) | 2^1 (from 25% to 50%)
C=CC1=C(C)c2cc3[n-]c(cc4[n-]c(cc5nc(cc1n2)C(C)=C5C=C)c(C)c4CCC(=O)N[C@@H](CO)C(=O)O)c(CCC(=O)N[C@@H](CO)C(=O)O)c3C.[Cl-].[Fe+3] [VI, 6,7-bis-(N^α-Seryl]-Protohemin (IX)] | 1 (up to 25% virus-infected monolayer) | 1 (up to 25% virus-infected monolayer) | 0^1 | 2 (from 25% to 50%) | 2 (from 25% to 50%) | 0^1 | 3 (from 50% to 75%) | 3 (from 50% to 75%) | 2^1 (from 25% to 50%)
